In patent US11970498B2, “CDK2 inhibitors” (BLUEPRINT MEDICINES CORPORATION, priority 2021, dated 2024) one finds IC50 data, which are given here for 23 compounds.

One assay deals with CDK2/Cyclin E (Homo sapiens, UniProt P24941). Briefly: CDK2/Cyclin E biochemical phosphorylation assay (Caliper mobility shift). The following applies: apparent IC50; 1.0 mM ATP or ATP Km; 1.25 nM enzyme; 25° C.; read-out: CDK2/cyclin E1 IC50. The method in brief: (§1)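 7.5 µM 5-FAM-QSPKKG-CONH2 peptide phosphorylated by CDK2/Cyclin E (1.25 nM) or GST-CDK1/Cyclin B1 (1.5 nM) at 1.0 mM ATP or ATP Km, in HEPES pH 7.5, MgCl2, Brij-35, DTT, 1% DMSO, 25 °C to 10–20% conversion. EDTA stop; Caliper mobility-shift readout; apparent IC50 from percent activity vs log concentration.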

Another assay has as its target T1, CDK1/Cyclin B1, GST-tag (Homo sapiens, UniProt P06493).
T1 construct: GST
Briefly: CDK1/Cyclin B1 biochemical phosphorylation assay (Caliper mobility shift). To be noted: apparent IC50; 1.0 mM ATP or ATP Km; 1.5 nM enzyme; 25° C. In outline:
as §1

T1 sequence (P06493 whole entry): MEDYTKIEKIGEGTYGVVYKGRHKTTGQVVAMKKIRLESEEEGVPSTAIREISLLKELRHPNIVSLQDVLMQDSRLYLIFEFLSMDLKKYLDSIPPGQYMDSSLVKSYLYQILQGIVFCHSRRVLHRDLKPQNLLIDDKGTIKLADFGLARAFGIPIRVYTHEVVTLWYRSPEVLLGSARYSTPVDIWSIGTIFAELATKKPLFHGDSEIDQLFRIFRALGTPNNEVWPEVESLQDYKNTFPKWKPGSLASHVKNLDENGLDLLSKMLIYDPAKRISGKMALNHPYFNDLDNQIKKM
T1 sequence (P14635 whole entry partner): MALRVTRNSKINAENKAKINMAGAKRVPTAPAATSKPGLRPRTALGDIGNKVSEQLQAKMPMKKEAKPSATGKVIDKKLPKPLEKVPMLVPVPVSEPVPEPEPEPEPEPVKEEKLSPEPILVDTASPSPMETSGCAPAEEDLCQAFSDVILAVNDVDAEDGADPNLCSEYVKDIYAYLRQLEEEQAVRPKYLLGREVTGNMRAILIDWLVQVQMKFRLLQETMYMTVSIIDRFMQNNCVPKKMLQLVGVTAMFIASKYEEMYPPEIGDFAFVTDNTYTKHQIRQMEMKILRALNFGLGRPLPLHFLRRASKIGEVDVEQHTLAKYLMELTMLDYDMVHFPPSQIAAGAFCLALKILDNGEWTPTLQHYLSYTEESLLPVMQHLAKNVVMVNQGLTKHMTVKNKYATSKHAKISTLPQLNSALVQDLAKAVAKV

In the case of `Cc1nn(CC2CCOCC2)c2nc(Nc3cc(OC(F)F)[nH]n3)cnc12` [Example 87, N-(5-(difluoromethoxy)-1H-pyrazol-3-yl)-3-methyl-1-((tetrahydro-2H-pyran-4-yl)methyl)-1H-pyrazolo[3,4-b]pyrazin-6-amine], the IC50 at CDK2/Cyclin E was ≤ 10 nM; on CDK1/Cyclin B1, GST-tag it was 100 to 500 nM.
In the case of `C[C@@H]([C@H]1CCCOC1)n1ncc2ncc(Nc3cc(OC(F)F)[nH]n3)nc21` (single isomer, unassigned) [Example 215], the IC50 was ≤ 10 nM at CDK2/Cyclin E and < 100 nM on CDK1/Cyclin B1, GST-tag.
In the same order, the values of `FC(F)Oc1cc(Nc2cnc3cnn(CCc4ccncc4)c3n2)n[nH]1` [Example 130, N-(5-(difluoromethoxy)-1H-pyrazol-3-yl)-1-(2-(pyridin-4-yl)ethyl)-1H-pyrazolo[3,4-b]pyrazin-6-amine] are ≤ 10 nM and 100 to 500 nM.
Turning to `COc1cc(Nc2cnc3cnn([C@@H](C)c4cccnc4)c3n2)n[nH]1` [Example 67, (S)-N-(5-methoxy-1H-pyrazol-3-yl)-1-(1-(pyridin-3-yl)ethyl)-1H-pyrazolo[3,4-b]pyrazin-6-amine], the IC50 on CDK2/Cyclin E is ≤ 10 nM; on CDK1/Cyclin B1, GST-tag, ≥ 500 nM.
For `COc1cc(Nc2cnc3cnn(CC45CCC(CC4)OC5)c3n2)n[nH]1` [Example 136, 1-((2-oxabicyclo[2.2.2]octan-4-yl)methyl)-N-(5-methoxy-1H-pyrazol-3-yl)-1H-pyrazolo[3,4-b]pyrazin-6-amine], in that order: 10 to 20 nM and ≥ 500 nM.
Take `O=C1C[C@H](Cn2ncc3ncc(Nc4cc(OC(F)F)[nH]n4)nc32)CN1` (single isomer, unassigned) [Example 20, (S)-4-((6-((5-(difluoromethoxy)-1H-pyrazol-3-yl)amino)-1H-pyrazolo[3,4-b]pyrazin-1-yl)methyl)pyrrolidin-2-one or (R)-4-((6-((5-(difluoromethoxy)-1H-pyrazol-3-yl)amino)-1H-pyrazolo[3,4-b]pyrazin-1-yl)methyl)pyrrolidin-2-one]: the IC50 at CDK2/Cyclin E is ≤ 10 nM; on CDK1/Cyclin B1, GST-tag, ≥ 500 nM.
Take `FC(F)Oc1cc(Nc2cnc3cnn([C@H](c4ccccn4)C4CC4)c3n2)n[nH]1` [Example 102, (S)-1-(cyclopropyl(pyridin-2-yl)methyl)-N-(5-(difluoromethoxy)-1H-pyrazol-3-yl)-1H-pyrazolo[3,4-b]pyrazin-6-amine]: the IC50 on CDK2/Cyclin E was 20 to 30 nM; on CDK1/Cyclin B1, GST-tag, ≥ 500 nM.
Regarding `Cc1ccncc1Cn1ncc2ncc(Nc3cc(OC(F)F)[nH]n3)nc21` [Example 96, N-(5-(difluoromethoxy)-1H-pyrazol-3-yl)-1-((4-methylpyridin-3-yl)methyl)-1H-pyrazolo[3,4-b]pyrazin-6-amine], the IC50 on CDK2/Cyclin E was 30 to 100 nM; at CDK1/Cyclin B1, GST-tag, ≥ 500 nM.
On to `CC[C@H]([C@H](C)O)n1ncc2ncc(Nc3cc(OC(F)F)[nH]n3)nc21` (single isomer, unassigned) [Example 5, (2S,3R)-3-(6-((5-(difluoromethoxy)-1H-pyrazol-3-yl)amino)-1H-pyrazolo[3,4-b]pyrazin-1-yl)pentan-2-ol or (2S,3S)-3-(6-((5-(difluoromethoxy)-1H-pyrazol-3-yl)amino)-1H-pyrazolo[3,4-b]pyrazin-1-yl)pentan-2-ol], for which the IC50 on CDK2/Cyclin E is ≤ 10 nM; on CDK1/Cyclin B1, GST-tag, ≥ 500 nM.
As to `C[C@@H](c1cccnc1F)n1nc(C#N)c2ncc(Nc3cc(OC(F)F)[nH]n3)nc21` [Example 63, (S)-6-((5-(difluoromethoxy)-1H-pyrazol-3-yl)amino)-1-(1-(2-fluoropyridin-3-yl)ethyl)-1H-pyrazolo[3,4-b]pyrazine-3-carbonitrile], the IC50 was ≤ 10 nM on CDK2/Cyclin E and 100 to 500 nM on CDK1/Cyclin B1, GST-tag.
Regarding `C[C@@H]([C@H]1CCCOC1)n1ncc2ncc(Nc3cc(OC(F)F)[nH]n3)nc21` (single isomer, unassigned) [Example 217], the IC50 at CDK2/Cyclin E was 30 to 100 nM; on CDK1/Cyclin B1, GST-tag, ≥ 500 nM.
In the same order, the values of `COc1cc(Nc2cnc3cnn(C[C@H]4C[C@@H]4C#N)c3n2)n[nH]1` (single isomer, unassigned) [Example 197, (1R,2R)-2-((6-((5-methoxy-1H-pyrazol-3-yl)amino)-1H-pyrazolo[3,4-b]pyrazin-1-yl)methyl)cyclopropane-1-carbonitrile or (1S,2S)-2-((6-((5-methoxy-1H-pyrazol-3-yl)amino)-1H-pyrazolo[3,4-b]pyrazin-1-yl)methyl)cyclopropane-1-carbonitrile] are 20 to 30 nM and ≥ 500 nM.
With `O[C@@H]1C[C@H]1Cn1ncc2ncc(Nc3cc(OC(F)F)[nH]n3)nc21` (single isomer, unassigned) [Example 179, (1R,2S)-2-((6-((5-(difluoromethoxy)-1H-pyrazol-3-yl)amino)-1H-pyrazolo[3,4-b]pyrazin-1-yl)methyl)cyclopropan-1-ol or (1S,2R)-2-((6-((5-(difluoromethoxy)-1H-pyrazol-3-yl)amino)-1H-pyrazolo[3,4-b]pyrazin-1-yl)methyl)cyclopropan-1-ol], the IC50 at CDK2/Cyclin E is 30 to 100 nM; at CDK1/Cyclin B1, GST-tag it was ≥ 500 nM.
As to `C[C@@H](O)c1nn([C@@H](C)C2CCOCC2)c2nc(Nc3cc(OC(F)F)[nH]n3)cnc12` (single isomer, unassigned) [Example 182, (S)-1-(6-((5-(difluoromethoxy)-1H-pyrazol-3-yl)amino)-1-((S)-1-(tetrahydro-2H-pyran-4-yl)ethyl)-1H-pyrazolo[3,4-b]pyrazin-3-yl)ethan-1-ol or (R)-1-(6-((5-(difluoromethoxy)-1H-pyrazol-3-yl)amino)-1-((S)-1-(tetrahydro-2H-pyran-4-yl)ethyl)-1H-pyrazolo[3,4-b]pyrazin-3-yl)ethan-1-ol], the IC50 was ≤ 10 nM on CDK2/Cyclin E and ≥ 500 nM at CDK1/Cyclin B1, GST-tag.
For the compound `C[C@H](c1ccccn1)n1ncc2ncc(Nc3cc(OC(F)F)[nH]n3)nc21` [Example 82, (R)-N-(5-(difluoromethoxy)-1H-pyrazol-3-yl)-1-(1-(pyridin-2-yl)ethyl)-1H-pyrazolo[3,4-b]pyrazin-6-amine], the IC50 at CDK2/Cyclin E is 20 to 30 nM; on CDK1/Cyclin B1, GST-tag it was ≥ 500 nM.
With `C[C@@H](c1cccc(F)c1)n1ncc2ncc(Nc3cc(OC(F)F)[nH]n3)nc21` [Example 43, (S)-N-(5-(difluoromethoxy)-1H-pyrazol-3-yl)-1-(1-(3-fluorophenyl)ethyl)-1H-pyrazolo[3,4-b]pyrazin-6-amine], the IC50 on CDK2/Cyclin E is ≤ 10 nM; on CDK1/Cyclin B1, GST-tag, ≥ 500 nM.
In the case of `C[C@@H](O)c1nn([C@@H](C)c2cccnc2)c2nc(Nc3cc(OC(F)F)[nH]n3)cnc12` (single isomer, unassigned) [Example 177, (R)-1-(6-((5-(difluoromethoxy)-1H-pyrazol-3-yl)amino)-1-((S)-1-(pyridin-3-yl)ethyl)-1H-pyrazolo[3,4-b]pyrazin-3-yl)ethan-1-ol or (S)-1-(6-((5-(difluoromethoxy)-1H-pyrazol-3-yl)amino)-1-((S)-1-(pyridin-3-yl)ethyl)-1H-pyrazolo[3,4-b]pyrazin-3-yl)ethan-1-ol], the IC50 at CDK2/Cyclin E was ≤ 10 nM; on CDK1/Cyclin B1, GST-tag it was ≥ 500 nM.
As for `FC[C@@H](c1ccccc1)n1ncc2ncc(Nc3cc(OC(F)F)[nH]n3)nc21` (single isomer, unassigned) [Example 89, (R)-N-(5-(difluoromethoxy)-1H-pyrazol-3-yl)-1-(2-fluoro-1-phenylethyl)-1H-pyrazolo[3,4-b]pyrazin-6-amine or (S)-N-(5-(difluoromethoxy)-1H-pyrazol-3-yl)-1-(2-fluoro-1-phenylethyl)-1H-pyrazolo[3,4-b]pyrazin-6-amine], the IC50 is ≤ 10 nM on CDK2/Cyclin E and ≥ 500 nM at CDK1/Cyclin B1, GST-tag.
On to `C[C@H](C1CCOCC1)n1ncc2ncc(Nc3cc(OC(F)F)[nH]n3)nc21` [Example 34, (R)-N-(5-(difluoromethoxy)-1H-pyrazol-3-yl)-1-(1-(tetrahydro-2H-pyran-4-yl)ethyl)-1H-pyrazolo[3,4-b]pyrazin-6-amine], for which the IC50 on CDK2/Cyclin E was 10 to 20 nM; at CDK1/Cyclin B1, GST-tag, ≥ 500 nM.
In the case of `O[C@H]1CC[C@@H](n2ncc3ncc(Nc4cc(OC(F)F)[nH]n4)nc32)C1` (single isomer, unassigned) [Example 207], the IC50 at CDK2/Cyclin E was 10 to 20 nM; on CDK1/Cyclin B1, GST-tag, ≥ 500 nM.
In the same order, the values of `C[C@@H](c1cc(Cl)ccn1)n1ncc2ncc(Nc3cc(OC(F)F)[nH]n3)nc21` (single isomer, unassigned) [Example 188, (S)-1-(1-(4-chloropyridin-2-yl)ethyl)-N-(5-(difluoromethoxy)-1H-pyrazol-3-yl)-1H-pyrazolo[3,4-b]pyrazin-6-amine or (R)-1-(1-(4-chloropyridin-2-yl)ethyl)-N-(5-(difluoromethoxy)-1H-pyrazol-3-yl)-1H-pyrazolo[3,4-b]pyrazin-6-amine] are 30 to 100 nM and ≥ 500 nM.
For `COc1cc(Nc2cnc3cnn([C@@H](C)c4cc(F)ccn4)c3n2)n[nH]1` (single isomer, unassigned) [Example 186, (S)-1-(1-(4-fluoropyridin-2-yl)ethyl)-N-(5-methoxy-1H-pyrazol-3-yl)-1H-pyrazolo[3,4-b]pyrazin-6-amine or (R)-1-(1-(4-fluoropyridin-2-yl)ethyl)-N-(5-methoxy-1H-pyrazol-3-yl)-1H-pyrazolo[3,4-b]pyrazin-6-amine], in that order: 10 to 20 nM and ≥ 500 nM.
As for `FC(F)Oc1cc(Nc2cnc3cnn(C[C@H]4CCOC4)c3n2)n[nH]1` (single isomer, unassigned) [Example 144, (S)-N-(5-(difluoromethoxy)-1H-pyrazol-3-yl)-1-((tetrahydrofuran-3-yl)methyl)-1H-pyrazolo[3,4-b]pyrazin-6-amine or (R)-N-(5-(difluoromethoxy)-1H-pyrazol-3-yl)-1-((tetrahydrofuran-3-yl)methyl)-1H-pyrazolo[3,4-b]pyrazin-6-amine], the IC50 is ≤ 10 nM at CDK2/Cyclin E and < 100 nM on CDK1/Cyclin B1, GST-tag.
